The supplement of paper PMC10733146

Experiments:
Assay in all cases: viability relative to DMSO control (fraction); higher = less drug effect (more viable cells)
Conditions in all cases: 48 h
[1] = tested on: primary AML patient cells (S085)
Outline: (§1)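 The cells were primary mononuclear tumour cells, either fresh or cryopreserved, isolated by Ficoll from blood or bone marrow or derived from processed lymph node. Each well of a 384-well plate received 4 × 10^4 cells onto compounds pre-plated at five concentrations, with one well per concentration. The medium was RPMI-1640 with penicillin/streptomycin, L-glutamine and human serum, and plates stood at 37 °C and 5% CO2 for 48 h. Viability is reported as CellTiter-Glo luminescence relative to the median of 16 inner DMSO wells.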

[2] = tested on: primary MCL patient cells (S041)
Outline: as §1

[3] = tested on: primary MCL patient cells (S063)
Outline: as §1

[4] = tested on: primary T-NHL patient cells (S058)
Outline: as §1

[5] = tested on: primary AML patient cells (S012)
Outline: as §1

[6] = tested on: primary AML patient cells (S056)
Outline: as §1

[7] = tested on: primary DLBCL patient cells (S049)
Outline: as §1

[8] = tested on: primary MCL patient cells (S068)
Outline: as §1

[9] = tested on: primary CLL patient cells (S031)
Outline: as §1

[10] = tested on: primary T-PLL patient cells (S008)
Outline: as §1

[11] = tested on: primary AML patient cells (S037)
Outline: as §1

[12] = tested on: primary BL patient cells (S005)
Outline: as §1

[13] = tested on: primary AML patient cells (S011)
Outline: as §1

[14] = tested on: primary DLBCL patient cells (S076)
Outline: as §1

[15] = tested on: primary AML patient cells (S081)
Outline: as §1

[16] = tested on: primary AML patient cells (S006)
Outline: as §1

[17] = tested on: primary CLL patient cells (S043)
Outline: as §1

Structure (SMILES): CC[C@H](Nc1ncnc2[nH]cnc12)c1nc2cccc(F)c2c(=O)n1-c1ccccc1 [Idelalisib]
- viability ([1]; 0.0032 µM): 1.04
- viability ([1]; 0.016 µM): 0.844
- viability ([1]; 0.08 µM): 0.788
- viability ([1]; 0.4 µM): 0.82
- viability ([1]; 2 µM): 0.755
- viability ([2]; 0.0032 µM): 0.949
- viability ([2]; 0.016 µM): 0.908
- viability ([2]; 0.08 µM): 0.886
- viability ([2]; 0.4 µM): 0.893
- viability ([2]; 2 µM): 0.887
- viability ([3]; 0.0032 µM): 0.918
- viability ([3]; 0.016 µM): 0.792
- viability ([3]; 0.08 µM): 0.73
- viability ([3]; 0.4 µM): 0.693
- viability ([3]; 2 µM): 0.595
- viability ([4]; 0.0032 µM): 0.988
- viability ([4]; 0.016 µM): 0.916
- viability ([4]; 0.08 µM): 0.961
- viability ([4]; 0.4 µM): 1.08
- viability ([4]; 2 µM): 0.985
- viability ([5]; 0.0032 µM): 1.02
- viability ([5]; 0.016 µM): 0.982
- viability ([5]; 0.08 µM): 1.18
- viability ([5]; 0.4 µM): 1.04
- viability ([5]; 2 µM): 1.06
- viability ([6]; 0.0032 µM): 1.02
- viability ([6]; 0.016 µM): 1.02
- viability ([6]; 0.08 µM): 0.954
- viability ([6]; 0.4 µM): 0.896
- viability ([6]; 2 µM): 0.911
- viability ([7]; 0.0032 µM): 1.02
- viability ([7]; 0.016 µM): 1.02
- viability ([7]; 0.08 µM): 0.968
- viability ([7]; 0.4 µM): 1.02
- viability ([7]; 2 µM): 0.94
- viability ([8]; 0.0032 µM): 0.888
- viability ([8]; 0.016 µM): 0.755
- viability ([8]; 0.08 µM): 0.663
- viability ([8]; 0.4 µM): 0.612
- viability ([8]; 2 µM): 0.558
- viability ([9]; 0.0032 µM): 0.974
- viability ([9]; 0.016 µM): 0.861
- viability ([9]; 0.08 µM): 0.731
- viability ([9]; 0.4 µM): 0.654
- viability ([9]; 2 µM): 0.569
- viability ([10]; 0.0032 µM): 1
- viability ([10]; 0.016 µM): 0.97
- viability ([10]; 0.08 µM): 1.03
- viability ([10]; 0.4 µM): 0.99
- viability ([10]; 2 µM): 0.992
- viability ([11]; 0.0032 µM): 0.976
- viability ([11]; 0.016 µM): 1.03
- viability ([11]; 0.08 µM): 1.03
- viability ([11]; 0.4 µM): 1.81
- viability ([11]; 2 µM): 0.983
- viability ([12]; 0.0032 µM): 1
- viability ([12]; 0.016 µM): 0.95
- viability ([12]; 0.08 µM): 0.982
- viability ([12]; 0.4 µM): 1.01
- viability ([12]; 2 µM): 0.86
- viability ([13]; 0.0032 µM): 0.968
- viability ([13]; 0.016 µM): 0.873
- viability ([13]; 0.08 µM): 0.924
- viability ([13]; 0.4 µM): 0.88
- viability ([13]; 2 µM): 0.829
- viability ([14]; 0.0032 µM): 0.935
- viability ([14]; 0.016 µM): 0.879
- viability ([14]; 0.08 µM): 0.825
- viability ([14]; 0.4 µM): 0.832
- viability ([14]; 2 µM): 0.735
- viability ([15]; 0.0032 µM): 1.07
- viability ([15]; 0.016 µM): 1.04
- viability ([15]; 0.08 µM): 1.06
- viability ([15]; 0.4 µM): 1.07
- viability ([15]; 2 µM): 1.03
- viability ([16]; 0.0032 µM): 1.02
- viability ([16]; 0.016 µM): 0.97
- viability ([16]; 0.08 µM): 0.943
- viability ([16]; 0.4 µM): 0.885
- viability ([16]; 2 µM): 0.882
- viability ([17]; 0.0032 µM): 0.909
- viability ([17]; 0.016 µM): 0.805
- viability ([17]; 0.08 µM): 0.719
- viability ([17]; 0.4 µM): 0.745
- viability ([17]; 2 µM): 0.691

Structure (SMILES): Nc1nc(F)nc2c1ncn2[C@@H]1O[C@H](CO)[C@@H](O)[C@@H]1O [Fludarabine]
- viability ([1]; 0.016 µM): 1.02
- viability ([1]; 0.08 µM): 1.05
- viability ([1]; 0.4 µM): 0.561
- viability ([1]; 2 µM): 0.172
- viability ([1]; 10 µM): 0.112
- viability ([2]; 0.016 µM): 1.05
- viability ([2]; 0.08 µM): 1.01
- viability ([2]; 0.4 µM): 0.993
- viability ([2]; 2 µM): 0.647
- viability ([2]; 10 µM): 0.149
- viability ([3]; 0.016 µM): 1.03
- viability ([3]; 0.08 µM): 1
- viability ([3]; 0.4 µM): 0.983
- viability ([3]; 2 µM): 0.845
- viability ([3]; 10 µM): 0.196
- viability ([4]; 0.016 µM): 1.15
- viability ([4]; 0.08 µM): 1.05
- viability ([4]; 0.4 µM): 0.829
- viability ([4]; 2 µM): 0.288
- viability ([4]; 10 µM): 0.133
- viability ([5]; 0.016 µM): 1.02
- viability ([5]; 0.08 µM): 0.979
- viability ([5]; 0.4 µM): 0.987
- viability ([5]; 2 µM): 0.921
- viability ([5]; 10 µM): 0.753
- viability ([6]; 0.016 µM): 1.3
- viability ([6]; 0.08 µM): 0.88
- viability ([6]; 0.4 µM): 0.725
- viability ([6]; 2 µM): 0.208
- viability ([6]; 10 µM): 0.0833
- viability ([7]; 0.016 µM): 1.12
- viability ([7]; 0.08 µM): 1.11
- viability ([7]; 0.4 µM): 1.04
- viability ([7]; 2 µM): 0.775
- viability ([7]; 10 µM): 0.375
- viability ([8]; 0.016 µM): 1.01
- viability ([8]; 0.08 µM): 0.961
- viability ([8]; 0.4 µM): 0.804
- viability ([8]; 2 µM): 0.463
- viability ([8]; 10 µM): 0.194
- viability ([9]; 0.016 µM): 1.05
- viability ([9]; 0.08 µM): 1.02
- viability ([9]; 0.4 µM): 0.779
- viability ([9]; 2 µM): 0.276
- viability ([9]; 10 µM): 0.0672
- viability ([10]; 0.016 µM): 0.988
- viability ([10]; 0.08 µM): 1.02
- viability ([10]; 0.4 µM): 0.942
- viability ([10]; 2 µM): 0.761
- viability ([10]; 10 µM): 0.373
- viability ([11]; 0.016 µM): 1.25
- viability ([11]; 0.08 µM): 0.999
- viability ([11]; 0.4 µM): 1.18
- viability ([11]; 2 µM): 0.643
- viability ([11]; 10 µM): 0.455
- viability ([12]; 0.016 µM): 0.972
- viability ([12]; 0.08 µM): 1.18
- viability ([12]; 0.4 µM): 0.943
- viability ([12]; 2 µM): 0.905
- viability ([12]; 10 µM): 1.05
- viability ([13]; 0.016 µM): 0.942
- viability ([13]; 0.08 µM): 0.773
- viability ([13]; 0.4 µM): 0.543
- viability ([13]; 2 µM): 0.255
- viability ([13]; 10 µM): 0.0686
- viability ([14]; 0.016 µM): 1.05
- viability ([14]; 0.08 µM): 1.07
- viability ([14]; 0.4 µM): 0.772
- viability ([14]; 2 µM): 0.373
- viability ([14]; 10 µM): 0.203
- viability ([15]; 0.016 µM): 1.1
- viability ([15]; 0.08 µM): 1.05
- viability ([15]; 0.4 µM): 1.1
- viability ([15]; 2 µM): 1.02
- viability ([15]; 10 µM): 0.89
- viability ([16]; 0.016 µM): 1.02
- viability ([16]; 0.08 µM): 0.929
- viability ([16]; 0.4 µM): 0.529
- viability ([16]; 2 µM): 0.115
- viability ([16]; 10 µM): 0.0573
- viability ([17]; 0.016 µM): 1.02
- viability ([17]; 0.08 µM): 0.982
- viability ([17]; 0.4 µM): 0.882
- viability ([17]; 2 µM): 0.614
- viability ([17]; 10 µM): 0.236
